Test results reported in ChEMBL document CHEMBL1201862, “PubChem BioAssay data set” (2004).
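Growth conditions: 96-well plates. Treatment: test compound, 48 hours, 5 concentrations. Analysis: linear interpolation between bracketing concentrations; unreached endpoints set to highest concentration. GI50 is the concentration that inhibits growth by half.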 The source made the active and inactive calls. Rule as the data show it: active = GI50 up to about 1.1 µM and inactive = higher.

Assays:
Experiment in all cases: growth of human tumour cells (NCI), 48 h
[1] = test system: NCI-H23
[2] = test system: OVCAR-8
[3] = test system: ACHN
[4] = test system: A498
[5] = test system: UO-31
[6] = test system: SK-MEL-5
[7] = test system: TK-10
[8] = test system: DU-145
[9] = test system: SR
[10] = test system: HCC 2998
[11] = test system: SF-539
[12] = test system: CAKI-1
[13] = test system: MDA-MB-231
[14] = test system: 786-0
[15] = test system: U-251
[16] = test system: HCT-15
[17] = test system: BT-549
[18] = test system: A549
[19] = test system: RXF 393
[20] = test system: PC-3

Structure (SMILES)	GI50 [1]	GI50 [2]	GI50 [3]	GI50 [4]	GI50 [5]	GI50 [6]	GI50 [7]	GI50 [8]	GI50 [9]	GI50 [10]	GI50 [11]	GI50 [12]	GI50 [13]	GI50 [14]	GI50 [15]	GI50 [16] [µM]	GI50 [17]	GI50 [18]	GI50 [19]	GI50 [20]
Nc1nc(N)c(-c2cccc(C(F)(F)F)c2)c(Cc2cccc(C(F)(F)F)c2)n1	2.01 µM (inactive)	8.49 µM (inactive)	2.65 µM (inactive)	3.43 µM (inactive)	6.32 µM (inactive)	2.98 µM (inactive)	7.67 µM (inactive)	7.71 µM (inactive)	1.25 µM (inactive)	3.1 µM (inactive)	4.41 µM (inactive)	7.23 µM (inactive)	13.1 µM (inactive)	0.841 µM (active)	15.7 µM (inactive)	1.44	10.2 µM (inactive)	0.628 µM (active)	3.34 µM (inactive)	11.7 µM (inactive)
NCCC1([N+](=O)[O-])CCNCC1	> 100 µM (inactive)	> 100 µM (inactive)	> 100 µM (inactive)	> 100 µM (inactive)	> 100 µM (inactive)	> 100 µM (inactive)	> 100 µM (inactive)	> 100 µM (inactive)	> 100 µM (inactive)	> 100 µM (inactive)	> 100 µM (inactive)	> 100 µM (inactive)	> 100 µM (inactive)	> 100 µM (inactive)	> 100 µM (inactive)	> 100	> 100 µM (inactive)	> 100 µM (inactive)	> 100 µM (inactive)	> 100 µM (inactive)
COC(=O)/C=C/c1ccc(OP(=O)(O)O)c(OC)c1	> 100 µM (inactive)	> 100 µM (inactive)	> 100 µM (inactive)	> 100 µM (inactive)	> 100 µM (inactive)	> 100 µM (inactive)	> 100 µM (inactive)	> 100 µM (inactive)	> 100 µM (inactive)	> 100 µM (inactive)	> 100 µM (inactive)	> 100 µM (inactive)	> 100 µM (inactive)	> 100 µM (inactive)	> 100 µM (inactive)	> 100	> 100 µM (inactive)	> 100 µM (inactive)	> 100 µM (inactive)	> 100 µM (inactive)
COc1ccc(N2C(N)=C(C#N)C(C#N)(C#N)C2c2cccc([N+](=O)[O-])c2)cc1 (centres undefined)	15.5 µM (inactive)	17.9 µM (inactive)	14.2 µM (inactive)	16.1 µM (inactive)	17.3 µM (inactive)	13.4 µM (inactive)	16.6 µM (inactive)	17.8 µM (inactive)	8.47 µM (inactive)	16.9 µM (inactive)	14.7 µM (inactive)	2.61 µM (inactive)	14.9 µM (inactive)	14.5 µM (inactive)	17.4 µM (inactive)	15.5	17.9 µM (inactive)	18.3 µM (inactive)	9.23 µM (inactive)	17.1 µM (inactive)
O=C(CCCC(=O)N1CC(CCl)c2ccc([N+](=O)[O-])cc21)N1CC(CCl)c2ccc([N+](=O)[O-])cc21 (centres undefined)	> 100 µM (inactive)	–	> 100 µM (inactive)	34 µM (inactive)	> 100 µM (inactive)	97.9 µM (inactive)	> 100 µM (inactive)	81.3 µM (inactive)	9.1 µM (inactive)	63.8 µM (inactive)	> 100 µM (inactive)	> 100 µM (inactive)	> 100 µM (inactive)	> 100 µM (inactive)	> 100 µM (inactive)	> 100	> 100 µM (inactive)	33.3 µM (inactive)	> 100 µM (inactive)	> 100 µM (inactive)
CC(=O)NC1C(OCc2ccccc2)OC(CO)C(O)C1OC(C)C(=O)N[C@@H](C)C(=O)N[C@H](CCC(=O)NCCNCCNc1c2ccccc2nc2cccc([N+](=O)[O-])c12)C(N)=O (some centres undefined)	0.022 µM (active)	0.11 µM (active)	0.0557 µM (active)	0.137 µM (active)	0.24 µM (active)	0.0159 µM (active)	0.135 µM (active)	0.0241 µM (active)	0.0794 µM (active)	0.0152 µM (active)	0.0982 µM (active)	0.0634 µM (active)	0.177 µM (active)	0.0601 µM (active)	0.0944 µM (active)	0.153	0.0698 µM (active)	0.0244 µM (active)	0.0169 µM (active)	0.0321 µM (active)
Cc1[nH]c2ccccc2c1/C=N/NC(=O)c1cccc(I)c1	19.1 µM (inactive)	26.5 µM (inactive)	26.8 µM (inactive)	18.4 µM (inactive)	20.7 µM (inactive)	15.7 µM (inactive)	26.7 µM (inactive)	27.9 µM (inactive)	17.9 µM (inactive)	18.6 µM (inactive)	18.8 µM (inactive)	18.2 µM (inactive)	16.7 µM (inactive)	20.7 µM (inactive)	21.5 µM (inactive)	23.7	21.9 µM (inactive)	29.2 µM (inactive)	17.5 µM (inactive)	23 µM (inactive)
COC(=O)C1Cc2c([nH]c3ccccc23)C(c2cccc(O)c2)N1 (centres undefined)	29.8 µM (inactive)	32.1 µM (inactive)	60 µM (inactive)	42.9 µM (inactive)	80 µM (inactive)	40.9 µM (inactive)	> 100 µM (inactive)	23.4 µM (inactive)	28.2 µM (inactive)	25.6 µM (inactive)	33.4 µM (inactive)	57 µM (inactive)	22.3 µM (inactive)	49.1 µM (inactive)	35 µM (inactive)	34	22.3 µM (inactive)	41 µM (inactive)	25.8 µM (inactive)	27.3 µM (inactive)
COc1ccc(C(SCCO)(c2ccccc2)c2ccccc2)cc1	16.9 µM (inactive)	17.9 µM (inactive)	14.1 µM (inactive)	17.2 µM (inactive)	14.9 µM (inactive)	10.1 µM (inactive)	18.8 µM (inactive)	13.6 µM (inactive)	21.6 µM (inactive)	16.4 µM (inactive)	15.6 µM (inactive)	15.5 µM (inactive)	14.3 µM (inactive)	12.5 µM (inactive)	13.1 µM (inactive)	11.9	16.6 µM (inactive)	12.2 µM (inactive)	16.1 µM (inactive)	11.9 µM (inactive)
Cc1ccc(-c2c3nc(c(-c4ccc(C)cc4)c4ccc([nH]4)c(-c4ccc(OCC5COC(C)(C)O5)cc4)c4nc(c(-c5ccc(C)cc5)c5ccc2[nH]5)C=C4)C=C3)cc1 (centres undefined)	> 31.6 µM (inactive)	25.1 µM (inactive)	> 31.6 µM (inactive)	1.13 µM (inactive)	> 31.6 µM (inactive)	> 31.6 µM (inactive)	21 µM (inactive)	> 31.6 µM (inactive)	> 31.6 µM (inactive)	> 31.6 µM (inactive)	> 31.6 µM (inactive)	> 100 µM (inactive)	> 31.6 µM (inactive)	> 31.6 µM (inactive)	> 31.6 µM (inactive)	> 31.6	> 100 µM (inactive)	> 31.6 µM (inactive)	> 10 µM (inactive)	> 10 µM (inactive)
CC(C)[Si](OC1=CCC[C@H]2NC(=O)[C@@H](Cc3ccccc3)[C@@]12C)(C(C)C)C(C)C	4.98 µM (inactive)	11.4 µM (inactive)	1.89 µM (inactive)	5.79 µM (inactive)	10.1 µM (inactive)	3.37 µM (inactive)	9.98 µM (inactive)	10.2 µM (inactive)	2.62 µM (inactive)	2.18 µM (inactive)	5.74 µM (inactive)	3.85 µM (inactive)	12.6 µM (inactive)	3.94 µM (inactive)	3.62 µM (inactive)	4.09	10.8 µM (inactive)	2.98 µM (inactive)	4.16 µM (inactive)	3.37 µM (inactive)
CCC(=S)N(C)O	10.1 µM (inactive)	40.3 µM (inactive)	35.2 µM (inactive)	65.9 µM (inactive)	26.8 µM (inactive)	8.55 µM (inactive)	60.1 µM (inactive)	27.6 µM (inactive)	1.02 µM (active)	55.6 µM (inactive)	39.3 µM (inactive)	81.8 µM (inactive)	42.4 µM (inactive)	11.6 µM (inactive)	23.4 µM (inactive)	17	> 100 µM (inactive)	20.3 µM (inactive)	25.9 µM (inactive)	8.69 µM (inactive)
COc1ccc(SCc2cc(OCc3ccccc3)c(OCc3ccccc3)c(OCc3ccccc3)c2)cc1	1.75 µM (inactive)	1.78 µM (inactive)	1.73 µM (inactive)	2.06 µM (inactive)	1.76 µM (inactive)	1.84 µM (inactive)	1.89 µM (inactive)	1.75 µM (inactive)	0.493 µM (active)	1.43 µM (inactive)	1.93 µM (inactive)	1.6 µM (inactive)	1.36 µM (inactive)	1.55 µM (inactive)	1.77 µM (inactive)	1.84	2.24 µM (inactive)	2.16 µM (inactive)	1.92 µM (inactive)	1.92 µM (inactive)
Cc1cc(C)c2c(O)cc(-c3ccc(Cl)cc3)nc2n1	75 µM (inactive)	> 100 µM (inactive)	48 µM (inactive)	32.4 µM (inactive)	41.8 µM (inactive)	17.1 µM (inactive)	> 100 µM (inactive)	54.1 µM (inactive)	37.6 µM (inactive)	27.6 µM (inactive)	> 100 µM (inactive)	37.4 µM (inactive)	> 27.9 µM (inactive)	> 46.5 µM (inactive)	36.8 µM (inactive)	21.9	23.6 µM (inactive)	30.6 µM (inactive)	43.7 µM (inactive)	14.9 µM (inactive)
